According to patent US20260132165A1, “MODIFIED NUCLEOSIDE ANALOGUE AND USE THEREOF, AND NUCLEOSIDE ANALOGUE-CONTAINING DOUBLE-STRANDED OLIGONUCLEOTIDE AND USE THEREOF” (RIGERNA THERAPEUTICS (BEIJING) CO., LTD., priority 2023, published 2026):
Strand notation (5' to 3'): a small letter for the sugar, then the base; units joined by * are phosphorothioate-linked, units joined directly phosphodiester-linked; [ ] holds rarer units or linkages, { } end groups; capitals alone tell only the bases. [Uhd] = commercial nucleoside analogue vector Uhd (Shanghai Hongene), the reference conjugate, placed in the sense strand; [NM031] = nucleoside analogue NM031 of the disclosure, C16 lipid conjugate (uridine-based); {VP} = vinylphosphonate on the antisense 5' end; e = 2'-O-(2-methoxyethyl) (MOE); m = 2'-O-methyl; f = 2'-fluoro

Columns and labels:
[1] = system: target gene SOD1; experiment: Test Example 4: lipid conjugated siRNA sequences with different carbon chain lengths, SOD1 in mouse brain, lateral ventricle administration; format: in vivo, C57BL/6j mice; set-up: Right hemisphere Mean value of inhibition rate / Left hemisphere Mean value of inhibition rate: unit not given here; details: D5; for Left hemisphere Mean value of inhibition rate: left hemisphere (non-administration side); for Left hemisphere Mean value of inhibition rate / Right hemisphere Mean value of inhibition rate: lateral ventricle; for Right hemisphere Mean value of inhibition rate: right hemisphere (administration side)
Protocol: 6-8 Week-old C57BL/6j mice were randomly grouped by body weight. Mice in each group were administered with siRNA by lateral ventricle administration, with an administration dose per mouse depending on a specific test. Taking Bregma in mouse brain as point 0 (origin), coordinates of right ventricle were found using the cerebral stereotaxic apparatus and position was marked on surface of skull (position of lateral ventricle was AP (anteroposterior, bregma anterior and posterior): −0.58 mm, ML (mediolateral, left and right of middle raphe): −1.2 mm, DV (dorsoventral, up and down cerebral dura mater plane): −2.2 mm). A dental electric drill was used to drill in the skull above a position of interest, and then medicament was injected into the lateral ventricle by a micro-dosing pump, wherein a total injection volume was 5 μL, and injection duration was 10 min. Needle was retained for 5 min after completion of injection, and then slowly withdrawn. Afterwards, needle hole was sealed with biomedical glue, and then head skin was adhered. After animals woke up, the animals were returned back to animal house and further fed. PBS control group was administered with the same volume of siRNA-free PBS solution. The day of administration was recorded as 0 day (D0), and the mice were sacrificed at observation point after the administration. Different parts of brain region were respectively taken and stored in the RNAlater.
(§1) RNA extraction: the above tissue samples were taken out from the RNAlater, and smashed for 60 s in Tissuelyser type II full-automatic tissue homogenizer, and total RNAs of various tissue samples were extracted using the full-automatic nucleic acid extraction instrument and the nucleic acid extraction kit from Zhejiang Hanwei Science and Technology Co. Ltd. according to methods described in instructions.
(§2) Reverse transcription reaction: 1 μg of the extracted total RNAs of the tissue samples were taken, and configured into 20 μL of reverse transcription system according to a method described in kit instructions by using a reverse transcription kit (Reverse Transcription System, A3500) from Promega Corporation and selecting Oligo (dT)15 reverse transcription primers, and the reverse transcription reaction was completed. After the reaction was ended, 80 μL of RNase-Free water was added into the reverse transcription system to provide cDNA solution for Real-time PCR detection.
(§3) Real-time PCR detection: 20 μL of Real-time PCR reaction system per PCR detection well was configured according to a method described in kit instructions using SYBR™ Select Master Mix (Catalog number: 4472908) reagent from ABI company. Each detection system contained 5 μL of cDNA template obtained from the above reverse transcription reaction, 10 μL of SYBR™ Select Master Mix, 0.5 μL of 10 μM upstream primers, 0.5 μL of 10 μM downstream primers, and 4 μL of RNase-Free H2O. The configured reaction system was subjected to Real-time PCR amplification on ABI StepOnePlus PCR instrument by a three-step method, wherein an amplification procedure was pre-denaturation at 95° C. for 10 min, then denaturation at 95° C. for 30 s, annealing at 60° C. for 30 s, and extension at 72° C. for 30 s; and processes of denaturation, annealing, and extension were repeated for 40 cycles. Gene expression differences were calculated by the ΔΔCt method after completion of the procedure.
In the real-time fluorescence quantitative PCR method, relative quantitative calculation of remaining expression level and inhibition rate of gene mRNA of interest in various test groups was performed by the ΔΔCt method, and the calculation method is as follows: […]

[2] = system: target gene SOD1; experiment: Test Example 12: inhibitory activity of lipid conjugated siRNA sequence on SOD1 in mouse eyes (intravitreal administration); format: in vivo, C57BL/6J mice; details: intravitreal, right eye, 7.5 μg per mouse, D14
Protocol: as §1, §2, §3
(§4) In the real-time fluorescence quantitative PCR method, relative quantitative calculation of remaining expression level and inhibition rate of gene mRNA of interest in various test groups was performed by the ΔΔCt method, and the calculation method is as follows:
The present test example evaluated, by an evaluation method for inhibitory activity on a target gene in mice, the inhibitory activity of siRNA sequence RZ899091 with the sense strand with the NM074 conjugation at Position 4 and siRNA reference sequence RX899121 without vector conjugation on the target gene SOD1 of interest in mice.
6-8 Week-old C57BL/6J mice were randomly grouped by body weight, 5 in each group and 3 groups in total. Mice in each group were administered with the above siRNA conjugate by intravitreal administration to right eyes of the mice, with an administration dose of 7.5 μg per mouse, and an administration volume of 2 μL. PBS control group was administered with the same volume of siRNA conjugate-free PBS solution. The day of administration was recorded as D0, and the mice were sacrificed at D14 after administration. Administration-side ocular retina, choroid, cornea, sclera and other tissues were respectively taken and stored in the RNAlater. RNA extraction, reverse transcription, and real-time fluorescence quantitative detection were performed on various tissues according to the above method, and gene expression differences were calculated by the above ΔΔCt method.

[3] = system: target gene SOD1; experiment: Test Example 5: inhibitory activity of lipid conjugated siRNA sequences on SOD1 by intrathecal administration to rats; format: in vivo, SD rats; set-up: key to Lumbar segmen Mean value of inhibition rate / Cortex Mean value of inhibition rate / Thoracic segment Mean value of inhibition rate / Cervical segment Mean value of inhibition rate / Cerebellum Mean value of inhibition rate / Hippocampus Mean value of inhibition rate: inhibition rate of SOD1 mRNA, calculated by the ΔΔCt method; details: intrathecal, 900 μg per rat, D7; for Cortex Mean value of inhibition rate: cerebral cortex; for Cervical segment Mean value of inhibition rate: spinal cord cervical segment; for Lumbar segmen Mean value of inhibition rate: spinal cord lumbar segment; for Thoracic segment Mean value of inhibition rate: spinal cord thoracic segment
Protocol: 6-8 Week-old SD rats were randomly grouped by body weight. Rats in each group were administered with siRNA by intrathecal administration, with an administration dose of 900 μg per rat. Injection was administered from rat spinal cord L5-L6, with an administration volume of 40 μL. Needle was retained for 2 min after completion of injection, and then slowly withdrawn. PBS control group was administered with the same volume of siRNA conjugate-free PBS solution. The day of administration was recorded as 0 day (D0), and the rats were sacrificed at observation point after administration. Different segments of spinal cord and different regions of brain were respectively taken and stored in the RNAlater.
as §1, §2, §3, §4
The present example evaluated, by an evaluation method for inhibitory activity on a target gene by intrathecal administration to rats, the inhibitory activity of siRNA sequence RZ899060 with the sense strand with the NM031 conjugation at Position 4 and vector-free siRNA sequence RZ899056, and Uhd conjugated siRNA reference sequence RZ899055 on the target gene SOD1 of interest in spinal cord and brain of rats.
6-8 Week-old SD rats were randomly grouped by body weight, 5 per group, 4 groups in total. Rats in each group were dosed with the above siRNA conjugates by intrathecal administration, with an administration dose of 900 μg per rat, and an administration volume of 40 μL. PBS control group was administered with the same volume of siRNA conjugate-free PBS solution. The day of administration was recorded as 0 day (D0), and the rats were sacrificed on D7 after administration. […]

Substance | Left hemisphere Mean value of inhibition rate ([1]; 150 μg per mouse) | Right hemisphere Mean value of inhibition rate ([1]; 150 μg per mouse) | Cerebellum Mean value of inhibition rate [3] | Cortex Mean value of inhibition rate [3] | Hippocampus Mean value of inhibition rate [3] | Cervical segment Mean value of inhibition rate [3] | Lumbar segmen Mean value of inhibition rate [3] | Thoracic segment Mean value of inhibition rate [3] | further results
RX599002: vector-free siRNA sequence; SEQ ID NO: 17 / 24 (sense mU*mU*mUmUmAmAfUfCfCfUmCmAmCmUmCmUmAmAmA; antisense {VP}-mU*fU*mUmAmGfAmGmUfGmAmGmGmAfUeUfAmAmAmA*mU*mG) [reference compound] | 55.55 | 74.62 |  |  |  |  |  |  | 
RX899121: siRNA reference sequence without vector conjugation; SEQ ID NO: 25 / 23 (sense mU*mU*mUmUmAmAfUfCfCfUmCmAmCmUmCmUmAmAmA; antisense {VP}-mU*fU*mUmAmGfAmGmUmGmAmGfGmAfUeUfAmAmAmA*mU*mG) [reference compound] |  |  |  |  |  |  |  |  | Choroid % Mean value of inhibition rate ([2]; choroid): 3.16%; Cornea and sclera % Mean value of inhibition rate ([2]; cornea and sclera): 5.35%; Kidney % Mean value of inhibition rate ([2]; kidney): 2.89%; Liver % Mean value of inhibition rate ([2]; liver): 5.35%; Retina % Mean value of inhibition rate ([2]; retina): 17.47%
RZ899055: Uhd conjugated siRNA reference sequence; SEQ ID NO: 4 / 22 (sense mU*mU*mU[Uhd]mAmAfUfCfCmUmCmAmCmUmCmUmAmAmA; antisense {VP}-mU*fU*mUmAmGfAmGmUmGmAmGmGmAfUmUfAmAmAmA*mU*mG) |  |  | 68.43 | 41.47 | 48.56 | 81.31 | 87.46 | 91.10 | 
RZ899056: vector-free siRNA sequence; SEQ ID NO: 1 / 22 (sense mU*mU*mUmUmAmAfUfCfCmUmCmAmCmUmCmUmAmAmA; antisense {VP}-mU*fU*mUmAmGfAmGmUmGmAmGmGmAfUmUfAmAmAmA*mU*mG) |  |  | 50.22 | 33.88 | 41.25 | 70.86 | 87.58 | 89.69 | 
RZ899077: siRNA sequence with the sense strand with the NM201 (C22) conjugation at Position 4; SEQ ID NO: 19 / 24 (sense UUUNAAUCCUCACUCUAAA; antisense UUUAGAGUGAGGAUUAAAAUG; NM201 (C22) conjugate at sense position 4; modified_base 1..2 OTHER; 2'-methoxy and 5'-thiophosphate modified nucleotides; modified_base 3 OTHER; 2'-methoxy modified nucleotide; modified_base 4 OTHER; n is the synthetic nucleotide analog NM201 as described in the disclosure.; modified_base 5..6 OTHER; 2'-methoxy modified nucleotides; modified_base 7..10 OTHER; 2'-fluoro modified nucleotides; modified_base 11..19 OTHER; 2'-methoxy modified ; modified_base 1 OTHER; 2'-methoxy and 5'-thiovinylphosphonate modified nucleotide; modified_base 2 OTHER; 2'-fluoro and 5'-thiophosphate modified …) | 32.81 | 43.33 |  |  |  |  |  |  | 
RZ899092: siRNA sequence with the sense strand with the NM031 (C16) conjugation at Position 4; SEQ ID NO: 14 / 23 (sense mU*mU*mU[NM031]mAmAfUfCfCfUmCmAmCmUmCmUmAmAmA; antisense {VP}-mU*fU*mUmAmGfAmGmUmGmAmGfGmAfUeUfAmAmAmA*mU*mG) | 60.45 | 79.45 |  |  |  |  |  |  | inhibitory activity compared with the vector-free siRNA sequence RX599002 ([1]; left and right hemisphere, lateral ventricle 150 μg per mouse): superior inhibitory activity; activity compared with Uhd conjugated reference sequence RZ899093 and NM200 (C22) conjugated reference sequence RZ899076 ([1]; right hemisphere (administration side) and left hemisphere (non-administration side), 150 μg per mouse): substantially comparable activity in the right hemisphere
